Series [1] relates to Na(+)-dependent taurocholate uptake. Particulars: human suspended hepatocytes; read-out: IC(50), inhibition of Na(+)-dependent taurocholate uptake; cited from earlier work.
Series [2] concerns hepatocytes with liver sinusoidal endothelial cells (LSEC). Nature of the series: Modified Human Liver-on-Chip with LSEC only, hepatocytes only and co-culture areas, visual observation. It counts as cell-based. Particulars: Bosentan at 11 μM, 3 days of treatment. The text has this:
(§1) One contemplated difference between unsuccessful modeling experiments i.e. measuring cell death by LDH release, as in FIG. 75 vs. successful modeling measuring reduced cell function by a reduction in albumin secretion, as in FIG. 76, was potential cross-talk (e.g. exchange of secretions or physical cell-cell interactions) between Hepatocyte and liver sinusoidal endothelial cells (LSEC) after treatment with Bosentan. Therefore, a Human Liver-on-Chip was designed and seeded with areas of LSEC only and hepatocytes only, allowing a co-culture area in between, see, micrograph in FIG. 77. […] Therefore, co-culturing with LSEC increases hepatocytes sensitivity to Bosentan in these microfluidic HUMAN Liver-on-Chips.

Series [3] concerns DOG Liver-on-Chip. Kind of series: Bosentan toxicity as albumin secretion, DOG Liver-on-Chip. The series is classed as cell-based. The method, then:
(§2) FIGS. 76A-76C provides graphs measuring Bosentan Toxicity as Albumin Secretion in three different species of microfluidic chips: FIG. 76A “RAT Liver-on-Chip”; FIG. 76B “DOG Liver-on-Chip”; increasing concentrations from 1.2-100 μM and FIG. 76C “Human Liver-on-Chip” increasing concentrations from 0.4-100 μM. Samples were removed from the microfluidic chip with a sample from a plate sandwich culture shown for comparison.
(§3) Thus, for step 4, one exemplary toxicity mechanism is a loss of albumin secretion.

Series [4] deals with Human Liver-on-Chip. It counts as cell-based. Particulars: 3 days. The method, then:
(§4) FIGS. 75A-75C provides graphs measuring Bosentan Toxicity as a percentage of LDH Leakage in three different species of microfluidic chips: FIG. 75A “RAT Liver-on-Chip” (7 days of treatment); FIG. 75B microfluidic “DOG Liver-on-Chip” (7 days of treatment); and FIG. 75C microfluidic “Human Liver-on-Chip” (3 days of treatment) increasing concentrations from 1.2 (1.3 for human)-100 μM. Samples were removed from the hepatocyte channel and the LSEC channel of the microfluidic chip with a sample from a plate sandwich culture shown for comparison.
(§5) An exemplary tool compound was chosen for a pilot study, as an exemplary step 1: Bosentan (Tracleer), see, FIG. 74 for an exemplary chemical structure. […] Step 2: RAT and DOG “Liver-on-Chip” models were chosen for comparison to a HUMAN “Liver-on-Chip”. Step 3: A concentration range of 1.2 to 100 μM Bosentan was selected. Step 4, a first type of mechanism, e.g. exemplary LDH leakage was chosen for analysis of toxicity. FIG. 75 provides graphs measuring Bosentan Toxicity as a percentage of LDH Leakage in three different species of microfluidic chips: A) “RAT Liver-on-Chip” (7 days of treatment); B) microfluidic “DOG Liver-on-Chip” (7 days of treatment); and C) microfluidic “Human Liver-on-Chip” (3 days of treatment) increasing concentrations from 1.2 (1.3 for human)-100 μM. […]

Another series has as its system RAT Liver-on-Chip. Nature of the series: Bosentan toxicity as LDH leakage, RAT Liver-on-Chip. The series is classed as cell-based. Particulars: 1.2-100 μM. On the procedure:
as §4, §5
In general terms: LDH in the medium is a marker of cell lysis.

For series [5] the following is noted: reported in literature; cited from earlier work.
Series [6] concerns Na(+)-dependent taurocholate uptake. Particulars: rat suspended hepatocytes; read-out: IC(50), inhibition of Na(+)-dependent taurocholate uptake; cited from earlier work.
Series [7] concerns DOG Liver-on-Chip. It counts as cell-based. Conditions: 7 days. The method, then:
as §4, §5

Series [8] deals with T1, rat Na(+)-dependent taurocholate co-transporting polypeptide (Ntcp/Slc10a1) (Rattus norvegicus, UniProt P26435).
T1 sequence (P26435 1-362): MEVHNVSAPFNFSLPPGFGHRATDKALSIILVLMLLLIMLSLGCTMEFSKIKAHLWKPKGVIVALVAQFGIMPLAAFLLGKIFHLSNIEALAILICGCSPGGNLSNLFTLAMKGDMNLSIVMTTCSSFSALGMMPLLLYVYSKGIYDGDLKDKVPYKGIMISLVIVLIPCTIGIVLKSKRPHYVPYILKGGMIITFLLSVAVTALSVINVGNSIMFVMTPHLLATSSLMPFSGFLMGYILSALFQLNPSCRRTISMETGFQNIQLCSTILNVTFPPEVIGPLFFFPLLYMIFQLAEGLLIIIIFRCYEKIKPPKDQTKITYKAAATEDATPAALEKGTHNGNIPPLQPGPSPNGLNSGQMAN
Conditions: rat Ntcp/Slc10a1 expressed in HEK293 cells; read-out: IC(50), inhibition of taurocholate uptake; cited from earlier work.

For series [9] the following is noted: clinical trials, cited from earlier work.
The test system of series [10] is Human Liver-on-Chip. It counts as cell-based. On the procedure: as §2, §3, §1
Another series addresses T2, human NTCP (SLC10A1) (Homo sapiens, UniProt Q14973).
T2 sequence (Q14973 1-349): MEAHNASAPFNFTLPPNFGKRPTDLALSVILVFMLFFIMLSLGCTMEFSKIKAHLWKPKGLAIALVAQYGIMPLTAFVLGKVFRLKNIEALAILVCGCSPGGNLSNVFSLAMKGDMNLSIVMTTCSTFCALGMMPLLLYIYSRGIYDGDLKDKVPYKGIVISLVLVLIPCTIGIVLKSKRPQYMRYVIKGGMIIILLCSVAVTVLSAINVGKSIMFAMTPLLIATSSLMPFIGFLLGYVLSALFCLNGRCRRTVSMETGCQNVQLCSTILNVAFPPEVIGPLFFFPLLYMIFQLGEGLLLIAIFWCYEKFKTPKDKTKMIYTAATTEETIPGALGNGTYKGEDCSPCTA
Particulars: human NTCP (SLC10A1) expressed in HEK293 cells; read-out: IC(50), inhibition of taurocholate uptake; cited from earlier work.

A further series relates to Rat Stellate Cells. Kind of series: Stellate cell activation in quadruple-culture Rat Liver-on-Chip (α-SMA staining). The series is classed as cell-based. Conditions: 1 ng/ml for 48 hours, from Day 7. The method, then:
FIGS. 82A-82B provides a micrograph of isolated Rat Stellate Cells that were seeded within a microfluidic Quadruple-culture “Rat Liver-on-Chip”. […] DAPI (blue) stained nuclei.
A quadruple-culture microfluidic Rat Liver-on-Chip at Day 7 has viable Stellate cells.

In series [11] the test system is Human Liver-on-Chip. The series is classed as in vitro ADME. The text has this:
FIG. 83 provides a graph measuring a low clearance compound Antipyrine in a Clearance assay in microfluidic “Human Liver-on-Chip” under continuous flow.
FIG. 84 provides a graph measuring low clearance compound Antipyrine in a Clearance assay in microfluidic “Human Liver-on-Chip” under non-dynamic conditions.
Each drug molecule has a limited time to interact with hepatocytes, i.e. an interaction time. Under conditions of flow, the interaction time is reduced. However the interaction time can be increased by either using non-dynamic conditions (absence of flow) or by reticulating the media containing the drug. The present invention contemplates both embodiments for increasing interaction time, and in particular for low clearance compounds. […] See, FIGS. 83-84.
Under dynamic conditions: Antipyrine medium removed from the Liver-on-Chip at 5 sample points over 10 hours of incubation, then again after 25 hours of incubation, was tested for an amount (%) of remaining compound. After 25 hours, around 90% of the compound remained in the media. See, FIG. 83.
Under non-dynamic conditions: 50 μl (total) of Antipyrine medium in the Liver-on-Chip was tested for an amount (%) of remaining compound, after incubation for 24 hours and 48 hours. At 48 hours, around 100% of the compound appeared to be present in the media. […]

Read-outs that look alike come from different tables or passages of the source.

We go through 3 molecules from US20230159899A1, “DEVICES AND METHODS FOR SIMULATING A FUNCTION OF LIVER TISSUE” (EMULATE, INC., priority 2015, published 2023).

In the case of `COc1ccccc1Oc1c(NS(=O)(=O)c2ccc(C(C)(C)C)cc2)nc(-c2ncccn2)nc1OCCO` [Bosentan], the IC50 in series [1] is 30 µM; in [6] it was 5.4 µM; in series [8], 0.71 µM; on human NTCP (SLC10A1) it was 24 µM. For the same molecule, the “hepatocyte degradation, LSEC area or area of hepatocytes alone” value in [2] was “not in either the LSEC area or area of hepatocytes alone”. In addition, the “visual observation, co-culture area of hepatocytes with LSEC” value in series [2] was “significant hepatocyte degradation”. The “albumin secretion by DOG hepatocytes” value in the series with DOG Liver-on-Chip [3] (11.1 μM Bosentan) is “relatively constant amounts of albumin”. The “dose response associated with albumin secretion (loss of albumin secretion)” value in the series on DOG Liver-on-Chip [3] (1.2-100 μM, fluid samples from the upper chamber) is reported as “clear dose response”. Further, the “LDH leakage: concentration at which hepatocytes on plates showed an effect” value in the series with Human Liver-on-Chip [4] was 100 µM. For the same molecule, the “concentration at which LDH effect was observed (the same as for loss of albumin secretion)” value with Human Liver-on-Chip [4] is “either 3.7 μM or 11.1 μM”. In the series on RAT Liver-on-Chip (7 days of treatment), the “LDH leakage, hepatocytes and LSEC channel of chip” value was “no toxicity effects”. In the series on RAT Liver-on-Chip (plate sandwich culture), the “LDH toxicity, rat hepatocytes on conventional plates” value was “does not show LDH toxicity”. Further, in series [5], the “hepatotoxicity in treated rats” value is given as “do not develop hepatotoxicity”. Moreover, in the series with DOG Liver-on-Chip [7], the “LDH leakage: dose up to which there was a lack of effects” value came out at 100 µM. Also, the “elevations in serum Alanine aminotransferase (ALT)” value in [9] (patients who developed hepatotoxicity) was “greater than 3 fold”. Moreover, in [9], the “human patients treated who developed hepatotoxicity” value is on record as 8-18%. Moreover, the “dose response of albumin secretion” value in the series with Human Liver-on-Chip [10] is on record as “clear dose response”.

As for “TGFβ-1: factor used to activate Stellate cells”, the “expression of activation marker Alpha-smooth muscle actin (α-SMA)” value in the series with Rat Stellate Cells is listed as “increased (strong) expression”.

On to `Cc1cc(=O)n(-c2ccccc2)n1C` [Antipyrine], for which the “amount of remaining compound in the media” value in the series on Human Liver-on-Chip [11] (dynamic conditions (continuous flow), after 25 hours) is given as “around 90%”; in the series on Human Liver-on-Chip [11] (non-dynamic conditions, 50 μl medium, at 48 hours) it was “around 100%”.
